For the experiment, the target named is T1, IKKβ (Homo sapiens, UniProt O14920).
T1 construct: gene IKBKB
T1 sequence (O14920 1-756): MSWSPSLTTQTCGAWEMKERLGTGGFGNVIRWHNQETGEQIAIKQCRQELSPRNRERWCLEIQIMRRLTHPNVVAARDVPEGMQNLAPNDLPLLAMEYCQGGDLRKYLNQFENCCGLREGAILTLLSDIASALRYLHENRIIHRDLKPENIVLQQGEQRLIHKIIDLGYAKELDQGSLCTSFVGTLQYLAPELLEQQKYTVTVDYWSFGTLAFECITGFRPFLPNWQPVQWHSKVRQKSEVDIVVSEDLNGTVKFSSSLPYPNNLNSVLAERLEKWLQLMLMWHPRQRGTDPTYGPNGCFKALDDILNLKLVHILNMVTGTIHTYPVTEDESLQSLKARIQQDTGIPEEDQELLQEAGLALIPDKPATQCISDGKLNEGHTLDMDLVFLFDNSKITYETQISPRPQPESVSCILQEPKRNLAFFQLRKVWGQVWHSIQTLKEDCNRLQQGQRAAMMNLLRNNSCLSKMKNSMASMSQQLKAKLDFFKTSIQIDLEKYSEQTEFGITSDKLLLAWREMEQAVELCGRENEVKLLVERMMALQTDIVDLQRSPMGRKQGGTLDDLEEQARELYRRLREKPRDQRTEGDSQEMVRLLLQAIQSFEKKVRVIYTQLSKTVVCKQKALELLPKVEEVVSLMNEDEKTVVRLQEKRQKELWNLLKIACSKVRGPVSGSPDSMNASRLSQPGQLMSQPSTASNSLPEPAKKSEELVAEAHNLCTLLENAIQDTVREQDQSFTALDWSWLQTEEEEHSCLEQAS
The experiment in a line: IMAP TR-FRET kinase assay with IKKβ enzyme (Millipore), IκBα-derived peptide substrate, […] ATP. In kind it is biochemical.

Structures are written as SMILES.

The compound `N#Cc1c(C2CCCNC2)cc(-c2ccccc2O)nc1N` (centres unmarked) [Bayer-5a] came in with an IC50 of 0.17 µM.

Turning to `COc1ccc(-c2nc3c(c(SCC(=O)Nc4cccc(O)c4)n2)Cc2c(CO)cnc(C)c2O3)cc1` [VH01], the IC50 turned out to be 20.3 µM. Against the preceding compound, the IC50 is about 120-fold higher.

(Values after article PMC2957683, “IKKβ inhibitor identification: a multi-filter driven novel scaffold” (2010).)
